# In ChEMBL document CHEMBL1201862, “PubChem BioAssay data set” (2004):
# Active and inactive are the calls of the source.
# Columns and labels:
# Cytochrome P450 3A4 = Cytochrome P450 3A4 (Homo sapiens, UniProt P08684); details: Potency;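 further: confirmatory qHTS run detecting inhibitors and substrates of CYP3A4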
# Leucine aminopeptidase = molecular target: T1, Leucine aminopeptidase (Plasmodium falciparum 3D7, UniProt Q8IL11); test: P. falciparum M17LAP inhibitors, primary screen, biochemical, fluorogenic H-Leu-NHMec substrate, 1536-well (AID 1619); assay type: functional
# T1 sequence (Q8IL11 whole entry): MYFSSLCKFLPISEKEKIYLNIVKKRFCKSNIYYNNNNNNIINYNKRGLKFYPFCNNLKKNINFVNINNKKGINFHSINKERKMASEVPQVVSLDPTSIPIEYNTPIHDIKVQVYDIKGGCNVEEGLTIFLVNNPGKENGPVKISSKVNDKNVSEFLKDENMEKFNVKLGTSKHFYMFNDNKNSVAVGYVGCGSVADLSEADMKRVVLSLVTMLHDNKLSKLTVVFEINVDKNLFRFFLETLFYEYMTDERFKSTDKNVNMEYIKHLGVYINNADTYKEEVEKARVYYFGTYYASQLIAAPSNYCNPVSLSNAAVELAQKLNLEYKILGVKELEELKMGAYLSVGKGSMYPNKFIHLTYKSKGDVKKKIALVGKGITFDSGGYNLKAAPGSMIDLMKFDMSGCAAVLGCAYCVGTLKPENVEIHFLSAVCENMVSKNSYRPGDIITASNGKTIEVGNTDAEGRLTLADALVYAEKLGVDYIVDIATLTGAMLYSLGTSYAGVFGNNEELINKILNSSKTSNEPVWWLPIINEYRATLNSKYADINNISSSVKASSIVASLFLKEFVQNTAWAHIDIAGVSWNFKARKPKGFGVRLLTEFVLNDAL
# [1] = molecular target: Peroxisome proliferator-activated receptor gamma/Nuclear receptor coactivator 2 (Homo sapiens, UniProt P37231); test: (§1) TR-FRET dose response biochemical High Throughput Screening assay for agonists of the steroid receptor coactivator 2 (SRC-2) recruitment by the peroxisome proliferator-activated receptor gamma (PPAR gamma): non-selective agonists. [Related pubchem assays: 1297, 1032 ]; assay type: functional
# [2] = molecular target: Peroxisome proliferator-activated receptor gamma/Nuclear receptor corepressor 2 (Homo sapiens, UniProt P37231+Q9Y618); assay type: functional
# [3] = molecular target: Peroxisome proliferator-activated receptor gamma/Nuclear receptor coactivator 1 (Homo sapiens, UniProt P37231); test: as §1, with “1 (SRC-1)” for “2 (SRC-2)”, “assays (depositor defined):AID1300, AID1808, AID504735, AID631]” for “assays: 1297, 1032 ]”; assay type: protein assay
# [4] = molecular target: Photoreceptor-specific nuclear receptor (Homo sapiens, UniProt Q9Y5X4); assay type: functional;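 further: potency for compounds that break the NR2E3 corepressor complex and count as activators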
# Photoreceptor-specific nuclear receptor, sequence (Q9Y5X4 whole entry): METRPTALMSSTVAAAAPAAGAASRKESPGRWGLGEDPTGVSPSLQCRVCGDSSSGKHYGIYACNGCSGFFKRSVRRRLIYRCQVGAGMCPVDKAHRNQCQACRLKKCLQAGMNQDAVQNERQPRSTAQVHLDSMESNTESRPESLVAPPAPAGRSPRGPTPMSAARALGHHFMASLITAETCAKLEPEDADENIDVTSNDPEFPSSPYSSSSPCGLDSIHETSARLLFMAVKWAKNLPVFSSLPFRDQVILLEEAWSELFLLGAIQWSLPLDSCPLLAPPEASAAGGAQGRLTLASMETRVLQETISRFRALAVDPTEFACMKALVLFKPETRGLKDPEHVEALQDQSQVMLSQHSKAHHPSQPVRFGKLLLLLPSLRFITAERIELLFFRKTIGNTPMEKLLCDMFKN
# [5] = molecular target: Peroxisome proliferator-activated receptor gamma/Nuclear receptor coactivator 3 (Homo sapiens, UniProt P37231); test: as §1, with “3 (SRC-3)” for “2 (SRC-2)”, “1301 (Confirmation screen.), 1048 (Primary screen.)]” for “1297, 1032 ]”; assay type: functional
# Aspartyl aminopeptidase = Aspartyl aminopeptidase (Plasmodium falciparum 3D7, UniProt Q8I2J3)
# Aspartyl aminopeptidase, sequence (Q8I2J3 whole entry): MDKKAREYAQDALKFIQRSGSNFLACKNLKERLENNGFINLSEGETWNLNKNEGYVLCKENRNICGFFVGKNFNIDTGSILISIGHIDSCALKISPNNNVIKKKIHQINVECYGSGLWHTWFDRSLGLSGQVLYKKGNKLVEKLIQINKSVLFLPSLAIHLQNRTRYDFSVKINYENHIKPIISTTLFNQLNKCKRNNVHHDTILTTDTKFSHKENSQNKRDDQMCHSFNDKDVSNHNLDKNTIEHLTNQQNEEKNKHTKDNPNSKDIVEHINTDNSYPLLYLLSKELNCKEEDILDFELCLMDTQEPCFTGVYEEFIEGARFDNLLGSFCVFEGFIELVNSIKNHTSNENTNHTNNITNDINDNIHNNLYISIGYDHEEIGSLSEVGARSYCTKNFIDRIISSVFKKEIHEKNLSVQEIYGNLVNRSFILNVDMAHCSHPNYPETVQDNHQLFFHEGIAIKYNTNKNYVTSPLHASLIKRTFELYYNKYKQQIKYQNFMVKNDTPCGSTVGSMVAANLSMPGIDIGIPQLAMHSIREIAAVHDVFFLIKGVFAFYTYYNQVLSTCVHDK
# [6] = molecular target: T2, Heat shock factor protein 1 (Mus musculus, UniProt P38532); test: decrease of HSF1-responsive luciferase luminescence – cell-based, NIH3T3, dose retest, confirmation (AID 2382); assay type: functional;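 further: NIH3T3 fibroblasts with HSF1-driven luciferase reporter stressed by proteasome inhibitor MG132; luminescence from HSF1-driven luciferase expression after 8 hours of MG132 stress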
# T2 sequence (P38532 whole entry): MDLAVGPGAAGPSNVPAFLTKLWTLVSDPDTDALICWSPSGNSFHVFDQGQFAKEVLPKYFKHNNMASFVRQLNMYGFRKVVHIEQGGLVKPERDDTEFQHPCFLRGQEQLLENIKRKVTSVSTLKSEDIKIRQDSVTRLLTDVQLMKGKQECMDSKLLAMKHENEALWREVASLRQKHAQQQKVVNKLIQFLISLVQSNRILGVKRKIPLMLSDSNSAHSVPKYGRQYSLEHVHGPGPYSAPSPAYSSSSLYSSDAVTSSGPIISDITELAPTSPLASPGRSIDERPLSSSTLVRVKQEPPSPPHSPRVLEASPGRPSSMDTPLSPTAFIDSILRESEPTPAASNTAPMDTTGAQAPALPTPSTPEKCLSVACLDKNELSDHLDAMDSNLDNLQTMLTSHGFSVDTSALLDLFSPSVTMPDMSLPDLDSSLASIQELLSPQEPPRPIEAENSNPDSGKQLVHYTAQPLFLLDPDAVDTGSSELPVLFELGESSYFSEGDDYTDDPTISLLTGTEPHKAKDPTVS
# Procathepsin L = Procathepsin L (Homo sapiens, UniProt P07711)
# Procathepsin L, sequence (P07711 whole entry): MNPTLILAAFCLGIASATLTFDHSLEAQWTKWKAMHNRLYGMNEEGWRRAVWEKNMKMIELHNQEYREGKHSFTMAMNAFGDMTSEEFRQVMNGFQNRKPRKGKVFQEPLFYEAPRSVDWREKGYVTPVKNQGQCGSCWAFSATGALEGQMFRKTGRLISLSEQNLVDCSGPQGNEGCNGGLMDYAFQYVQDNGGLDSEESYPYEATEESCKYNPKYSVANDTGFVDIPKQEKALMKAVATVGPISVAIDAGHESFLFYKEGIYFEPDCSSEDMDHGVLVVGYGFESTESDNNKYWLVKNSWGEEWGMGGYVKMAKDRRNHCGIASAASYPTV
# [7] = molecular target: Lysosomal acid glucosylceramidase (Homo sapiens, UniProt P04062); test: Dose response cell-based high throughput screening assay to identify enhancers of beta-glucosidase activity. [Related pubchem assays: 784 ]; assay type: functional
# Lysosomal acid glucosylceramidase, sequence (P04062 whole entry): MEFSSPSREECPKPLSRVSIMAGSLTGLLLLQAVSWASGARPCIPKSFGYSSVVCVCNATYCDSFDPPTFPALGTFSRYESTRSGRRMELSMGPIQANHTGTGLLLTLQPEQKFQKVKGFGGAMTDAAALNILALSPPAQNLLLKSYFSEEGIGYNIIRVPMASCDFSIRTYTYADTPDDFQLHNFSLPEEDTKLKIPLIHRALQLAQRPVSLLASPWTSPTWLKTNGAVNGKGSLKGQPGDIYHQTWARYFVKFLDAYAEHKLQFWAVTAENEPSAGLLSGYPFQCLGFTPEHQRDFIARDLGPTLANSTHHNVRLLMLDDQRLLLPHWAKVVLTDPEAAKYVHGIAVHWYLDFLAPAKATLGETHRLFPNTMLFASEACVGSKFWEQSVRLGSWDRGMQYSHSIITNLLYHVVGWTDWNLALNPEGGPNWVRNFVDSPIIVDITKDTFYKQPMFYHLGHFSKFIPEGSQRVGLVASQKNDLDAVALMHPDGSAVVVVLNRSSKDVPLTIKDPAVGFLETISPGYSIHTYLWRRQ
# Cytochrome P450 2C9 = Cytochrome P450 2C9 (Homo sapiens, UniProt P11712); details: Potency
# Cytochrome P450 2C9, sequence (P11712 whole entry): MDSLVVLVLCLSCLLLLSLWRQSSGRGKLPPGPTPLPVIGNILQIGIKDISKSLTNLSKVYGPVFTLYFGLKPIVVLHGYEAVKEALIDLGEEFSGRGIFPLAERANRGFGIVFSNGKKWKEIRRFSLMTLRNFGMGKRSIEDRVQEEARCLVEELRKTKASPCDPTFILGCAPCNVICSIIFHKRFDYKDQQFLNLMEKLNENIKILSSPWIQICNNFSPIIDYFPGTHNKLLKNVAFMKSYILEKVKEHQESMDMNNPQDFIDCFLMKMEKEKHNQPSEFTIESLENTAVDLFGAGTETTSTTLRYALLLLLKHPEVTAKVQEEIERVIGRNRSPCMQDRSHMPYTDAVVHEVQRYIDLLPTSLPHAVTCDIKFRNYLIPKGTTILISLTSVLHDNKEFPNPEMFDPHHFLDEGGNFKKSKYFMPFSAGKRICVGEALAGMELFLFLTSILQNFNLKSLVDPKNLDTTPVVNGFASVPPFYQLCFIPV
# [8] = molecular target: Acyl-homoserine lactone acylase PvdQ (Pseudomonas aeruginosa (strain LESB58), UniProt Q9I194); test: PvdQ acylase enzyme activity blockers – biochemical, fluorescence, plate reader and imaging, cherry-picks, dose response (AID 493231)
# Acyl-homoserine lactone acylase PvdQ, sequence (Q9I194 24-193 limits assumed): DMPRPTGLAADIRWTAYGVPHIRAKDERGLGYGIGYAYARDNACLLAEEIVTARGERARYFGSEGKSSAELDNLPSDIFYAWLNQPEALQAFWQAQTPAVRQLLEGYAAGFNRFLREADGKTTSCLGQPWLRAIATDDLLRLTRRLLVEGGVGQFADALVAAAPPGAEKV
# Acyl-homoserine lactone acylase PvdQ, sequence (Q9I194 217-762 limits assumed): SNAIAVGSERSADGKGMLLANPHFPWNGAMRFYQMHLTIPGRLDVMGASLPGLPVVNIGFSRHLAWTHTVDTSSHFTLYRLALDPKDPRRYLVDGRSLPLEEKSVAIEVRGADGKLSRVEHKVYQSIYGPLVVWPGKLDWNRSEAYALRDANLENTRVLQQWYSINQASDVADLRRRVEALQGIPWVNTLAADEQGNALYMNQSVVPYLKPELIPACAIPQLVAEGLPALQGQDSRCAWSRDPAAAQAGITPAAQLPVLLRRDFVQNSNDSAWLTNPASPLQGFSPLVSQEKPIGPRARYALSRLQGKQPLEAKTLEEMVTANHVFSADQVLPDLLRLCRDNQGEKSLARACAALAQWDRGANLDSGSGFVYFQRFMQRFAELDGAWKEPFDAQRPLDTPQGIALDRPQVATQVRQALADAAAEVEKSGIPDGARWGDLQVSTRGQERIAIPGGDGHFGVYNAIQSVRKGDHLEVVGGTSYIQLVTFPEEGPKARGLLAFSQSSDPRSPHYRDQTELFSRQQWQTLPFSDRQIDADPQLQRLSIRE
# Exodeoxyribonuclease V = molecular target: T3, Exodeoxyribonuclease V (Escherichia coli (strain K12), UniProt P04993+P07648+P08394); test: RecBCD inhibition via phage-restricted bacterial growth – absorbance, V66 E. coli, mutant T4 phage, counter-screen for AddAB inhibitor project, dose response (AID 492957); assay type: functional, cell-based, Escherichia coli str. K-12 substr. MG1655
# T3 sequence (P04993 whole entry): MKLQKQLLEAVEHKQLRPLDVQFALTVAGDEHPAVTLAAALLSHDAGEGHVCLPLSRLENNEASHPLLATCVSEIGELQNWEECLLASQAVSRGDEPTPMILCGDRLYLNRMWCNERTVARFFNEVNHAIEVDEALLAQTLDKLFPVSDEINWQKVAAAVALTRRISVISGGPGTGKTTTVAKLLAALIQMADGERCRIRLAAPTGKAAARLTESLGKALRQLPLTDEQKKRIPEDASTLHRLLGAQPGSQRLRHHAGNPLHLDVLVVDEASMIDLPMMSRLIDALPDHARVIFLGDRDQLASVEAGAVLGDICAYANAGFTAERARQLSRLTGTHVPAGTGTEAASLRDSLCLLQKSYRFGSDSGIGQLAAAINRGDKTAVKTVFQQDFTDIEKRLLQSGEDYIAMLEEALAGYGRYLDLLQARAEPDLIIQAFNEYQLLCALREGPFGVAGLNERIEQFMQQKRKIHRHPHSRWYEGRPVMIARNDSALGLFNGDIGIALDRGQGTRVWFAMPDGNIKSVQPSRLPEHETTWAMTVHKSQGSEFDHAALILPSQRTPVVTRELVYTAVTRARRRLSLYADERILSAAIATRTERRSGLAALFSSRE
# T3 sequence (P07648 whole entry): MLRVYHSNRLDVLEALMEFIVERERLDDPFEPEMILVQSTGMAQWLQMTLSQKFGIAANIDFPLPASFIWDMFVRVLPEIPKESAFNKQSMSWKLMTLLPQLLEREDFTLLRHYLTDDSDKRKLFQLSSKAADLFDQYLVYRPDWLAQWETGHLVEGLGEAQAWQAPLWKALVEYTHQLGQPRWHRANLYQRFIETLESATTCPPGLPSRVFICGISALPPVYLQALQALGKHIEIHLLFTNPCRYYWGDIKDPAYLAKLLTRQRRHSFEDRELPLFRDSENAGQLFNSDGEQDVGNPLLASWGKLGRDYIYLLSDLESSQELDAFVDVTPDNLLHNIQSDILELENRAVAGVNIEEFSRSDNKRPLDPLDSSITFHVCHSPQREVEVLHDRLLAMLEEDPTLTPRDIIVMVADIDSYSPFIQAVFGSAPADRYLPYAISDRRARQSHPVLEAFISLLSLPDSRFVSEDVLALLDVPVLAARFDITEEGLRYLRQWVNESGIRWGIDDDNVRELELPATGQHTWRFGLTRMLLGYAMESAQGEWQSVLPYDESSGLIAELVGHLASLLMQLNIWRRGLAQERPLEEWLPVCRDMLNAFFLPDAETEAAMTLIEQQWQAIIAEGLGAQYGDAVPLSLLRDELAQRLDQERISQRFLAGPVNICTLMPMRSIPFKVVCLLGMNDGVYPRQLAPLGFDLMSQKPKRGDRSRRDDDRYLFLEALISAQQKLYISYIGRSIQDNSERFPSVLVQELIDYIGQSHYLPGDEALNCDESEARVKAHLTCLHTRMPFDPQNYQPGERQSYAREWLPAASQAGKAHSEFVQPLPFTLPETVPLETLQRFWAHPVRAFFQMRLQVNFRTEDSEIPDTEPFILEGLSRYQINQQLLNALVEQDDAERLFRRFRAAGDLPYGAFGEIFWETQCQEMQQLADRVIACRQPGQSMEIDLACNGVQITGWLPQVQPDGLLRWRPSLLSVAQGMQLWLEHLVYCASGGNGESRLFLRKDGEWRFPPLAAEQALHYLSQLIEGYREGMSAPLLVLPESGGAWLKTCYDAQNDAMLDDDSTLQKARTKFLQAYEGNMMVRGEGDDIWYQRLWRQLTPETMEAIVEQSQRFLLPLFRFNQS
# T3 sequence (P08394 whole entry): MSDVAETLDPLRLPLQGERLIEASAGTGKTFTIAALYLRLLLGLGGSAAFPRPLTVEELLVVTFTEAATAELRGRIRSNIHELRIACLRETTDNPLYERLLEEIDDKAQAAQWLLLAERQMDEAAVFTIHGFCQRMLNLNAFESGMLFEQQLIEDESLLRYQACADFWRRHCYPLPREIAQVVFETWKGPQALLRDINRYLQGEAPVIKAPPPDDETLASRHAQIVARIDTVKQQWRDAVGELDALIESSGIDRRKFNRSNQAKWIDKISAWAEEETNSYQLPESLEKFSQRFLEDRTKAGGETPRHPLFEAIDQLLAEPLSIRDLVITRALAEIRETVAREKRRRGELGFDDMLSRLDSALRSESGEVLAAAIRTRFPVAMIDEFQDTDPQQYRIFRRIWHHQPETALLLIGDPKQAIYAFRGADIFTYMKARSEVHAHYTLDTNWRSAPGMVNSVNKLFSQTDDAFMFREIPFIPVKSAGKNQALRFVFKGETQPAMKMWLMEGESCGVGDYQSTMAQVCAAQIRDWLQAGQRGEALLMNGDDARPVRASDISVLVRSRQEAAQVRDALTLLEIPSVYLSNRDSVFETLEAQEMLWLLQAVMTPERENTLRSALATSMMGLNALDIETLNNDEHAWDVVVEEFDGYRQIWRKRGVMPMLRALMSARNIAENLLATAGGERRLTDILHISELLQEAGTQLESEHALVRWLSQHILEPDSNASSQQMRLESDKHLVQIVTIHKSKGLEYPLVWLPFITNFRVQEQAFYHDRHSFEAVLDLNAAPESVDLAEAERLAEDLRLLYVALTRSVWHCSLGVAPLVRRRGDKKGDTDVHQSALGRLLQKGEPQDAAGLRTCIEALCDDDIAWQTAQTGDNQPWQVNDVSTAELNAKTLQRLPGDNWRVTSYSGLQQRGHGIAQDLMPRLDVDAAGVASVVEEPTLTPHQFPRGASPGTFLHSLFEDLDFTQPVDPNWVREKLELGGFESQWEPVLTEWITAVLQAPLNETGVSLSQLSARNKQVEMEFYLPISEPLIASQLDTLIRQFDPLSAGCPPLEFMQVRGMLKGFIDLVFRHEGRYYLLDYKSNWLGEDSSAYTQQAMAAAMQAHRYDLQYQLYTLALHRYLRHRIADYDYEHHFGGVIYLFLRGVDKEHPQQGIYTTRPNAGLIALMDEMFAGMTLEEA
# cells = assay type: functional
# [9] = Counterscreen for AddAB inhibitors: absorbance-based bacterial cell-based high throughput dose response assay for inhibitors of bacterial viability. [Related pubchem assays (depositor defined):AID435030, AID449728, AID449731, AID488942, AID488955, AID488956]; assay type: functional
# [10] = THP-1 cell cytotoxicity, dose response, cytotoxicity control for non-replicating M. tuberculosis project (AID 489025); assay type: functional
# [11] = molecular target: Eukaryotic translation initiation factor 4H (Homo sapiens, UniProt Q15056); test: eIF4H binding inhibition – biochemical, uHTS, fluorescence polarization, translation initiation inhibitor project, primary screen (AID 2012)
# [12] = molecular target: Polyadenylate-binding protein 1 (Homo sapiens, UniProt P11940); test: blockers of PABP interaction with poly(A) – biochemical, fluorescence polarization, […] (AID 2014)
# Polyadenylate-binding protein 1, sequence (P11940 whole entry): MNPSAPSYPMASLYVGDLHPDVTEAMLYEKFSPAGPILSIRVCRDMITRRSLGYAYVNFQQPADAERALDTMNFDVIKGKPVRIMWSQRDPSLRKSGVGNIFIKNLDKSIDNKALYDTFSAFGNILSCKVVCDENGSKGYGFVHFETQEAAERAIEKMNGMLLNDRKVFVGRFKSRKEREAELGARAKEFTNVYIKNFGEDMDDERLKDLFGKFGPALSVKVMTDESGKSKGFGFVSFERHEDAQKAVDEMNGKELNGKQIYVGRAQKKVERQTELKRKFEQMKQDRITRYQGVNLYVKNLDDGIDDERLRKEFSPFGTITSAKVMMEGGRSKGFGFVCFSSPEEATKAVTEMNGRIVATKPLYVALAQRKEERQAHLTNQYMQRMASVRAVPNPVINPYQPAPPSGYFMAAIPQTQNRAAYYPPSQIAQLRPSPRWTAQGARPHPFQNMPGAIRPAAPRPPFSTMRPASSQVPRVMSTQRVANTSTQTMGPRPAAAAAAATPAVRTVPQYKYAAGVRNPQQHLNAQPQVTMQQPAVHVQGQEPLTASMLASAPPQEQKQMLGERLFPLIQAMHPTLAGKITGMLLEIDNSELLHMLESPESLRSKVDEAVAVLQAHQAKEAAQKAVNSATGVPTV
# Cytochrome P450 3A4, sequence (P08684 whole entry): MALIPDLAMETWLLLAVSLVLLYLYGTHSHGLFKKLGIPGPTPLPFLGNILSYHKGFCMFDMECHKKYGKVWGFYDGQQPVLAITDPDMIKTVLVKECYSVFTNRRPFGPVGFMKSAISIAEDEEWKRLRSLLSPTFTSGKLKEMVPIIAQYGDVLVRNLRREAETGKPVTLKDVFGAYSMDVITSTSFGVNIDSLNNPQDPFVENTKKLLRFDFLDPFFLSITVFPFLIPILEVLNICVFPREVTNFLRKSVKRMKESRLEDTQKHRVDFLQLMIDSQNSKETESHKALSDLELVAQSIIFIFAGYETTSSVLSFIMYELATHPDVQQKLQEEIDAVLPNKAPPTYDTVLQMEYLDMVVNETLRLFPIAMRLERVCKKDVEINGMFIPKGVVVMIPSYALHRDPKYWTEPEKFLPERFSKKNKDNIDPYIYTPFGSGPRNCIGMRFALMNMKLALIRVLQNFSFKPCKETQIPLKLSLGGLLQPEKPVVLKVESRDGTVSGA
structure (smiles),measurement,setting,value
Nc1ccc(Cl)cc1Cl,AC50,Cytochrome P450 3A4,31.6 µM (inconclusive)
Cn1c(=S)[nH]c2c(c1=O)C(C)(C)Cc1ccccc1-2,IC50,Leucine aminopeptidase,1.9 µM (active)
same,EC50,[1],> 79.4 µM (not active)
same,IC50,[2],3.98 µM (active)
same,EC50,[3],> 79.4 µM (inactive)
same,IC50,[4],> 39.8 µM (not active)
same,EC50,[5],> 79.4 µM (not active)
Cc1c(C(=O)c2no[n+]([O-])c2C(=O)c2cnn(C)c2C)cnn1C,IC50,Aspartyl aminopeptidase,1.58 µM (active)
same,EC50,[6],5.9 µM (active)
same,IC50,Procathepsin L,> 59.6 µM (not active)
Cc1cccn2c(=O)c(/C=N/c3ccc(Cl)cc3)c(NCCO)nc12,EC50,[7],> 50 µM (not active)
C[C@]12C=CC(=O)C=C1CC[C@@H]1[C@H]3C[C@@H](O)[C@](O)(C(=O)CO)[C@]3(C)C[C@H](O)[C@]12F,AC50,Cytochrome P450 2C9,25.1 µM (inconclusive)
CCOC(=O)c1ccc(N2Cc3ccccc3C2)cc1O,AC50,[8],> 100 µM (inactive)
NC(=NOC(=O)c1ccc(Cl)cc1)c1ncc([N+](=O)[O-])s1,IC50,Exodeoxyribonuclease V,> 119 µM (inactive)
same,IC50,cells,19.2 µM (active)
same,IC50,[9],118 µM (inactive)
same,CC50,[10],> 40 µM (active)
Cn1c(SCC(=O)NC(C)(C)C)nnc1-c1cccc(NC(=O)c2ccccc2F)c1,IC50,[11],> 100 µM (inactive)
same,IC50,[12],7.07 µM (active)
